# Data as given in patent EP0427799B1, “METHOD AND COMPOUNDS FOR AICA RIBOSIDE DELIVERY AND FOR LOWERING BLOOD GLUCOSE” (GENSIA, INC., priority 1989, dated 1990).
# What was measured:
# [1] = tested on: liver glycogen; test: Effect on liver glycogen in mice; assay type: in vivo; details: 750 mg/Kg
# Procedure: (See Figures 9 and 10A to 10D). The glucose lowering effects of AICA riboside are related temporally to the generation and maintenance of liver ZMP levels in rats. (See Figures 11A and 11B).
# Swiss Webster mice were treated with saline (as a control) or 750 mg/kg of AICA riboside administered intraperitoneally, six animals per group. The mice were sacrificed one hour post-administration The livers were removed and extracted. Liver glycogen was determined by the method of Dubois, et al., Anal. Chem. 28:350-356 (1956). Glucose was measured by the hexokinase method (See Example K).
# [2] = tested on: plasma glucose; test: Plasma glucose levels in non-fasted rats; assay type: in vivo, rats (Sprague Dawley); details: 750 mg/Kg, 1 hour after administration
# Procedure: (§1) This hypoglycemic effect may contribute to the anti-ischemic properties of the molecule. Ribose is known to lower blood glucose in several animal species, including man, in relatively high doses (on the order of about 1000 mg/kg) by an unknown mechanism, possibly by inhibition of phosphoglucomutase. Accordingly, in theory, AICA riboside could cause hypoglycemia at extremely high doses ([…]) due to its ability to deliver ribose phosphate to cells. Other means of increasing intracellular ribose such as treatment with ribose itself or other nucleosides and prodrugs and analogs of them which can be metabolized to yield ribose-1-phosphate (which is converted ribose-5-phosphate) or ribose-5-phosphate may also lower blood sugar. […] At higher doses of AICA riboside, hypoglycemic seizures and death were induced in rabbits and mice. We have found rats to also be sensitive to the hypoglycemic effects of AICA riboside. Initial studies were performed using non-fasted rats (Sprague Dawley) and mice (Swiss-Webster). […] In non-fasted mice the decrease of glucose levels at this dose was greater, On the order of 30-50%. In both cases the hypoglycemia was statistically significant at the p <.01 level. […] In fasted mice, AICA riboside is potent in lowering blood glucose. (See e.g., Figure 6). In fasted mice AICA riboside may cause seizures at doses of 500 mg/Kg and above. […]
# [3] = tested on: ischemic heart tissue; test: Adenosine, AICA riboside and ZMP levels in ischemic heart tissue; assay type: in vivo, rats; details: ischemic rat heart tissue
# Procedure: Prodrug compounds of the present invention and AICA riboside were tested for their activity in enhancing the production of adenosine and increasing production of AICA riboside from ZMP in ischemic heart tissue in rats.
# Samples of heart tissue after ischemia were analyzed for nucleoside and nucleotide levels. Samples were measured for adenosine, AICA riboside and ZMP concentrations by HPLC.
# [4] = tested on: serum glucose; test: Plasma glucose levels in humans after intravenous infusion; assay type: in vivo
# Procedure: Healthy male volunteers were given a 30-minute intravenous infusion of AICA riboside at doses of 25 mg/kg, 50 mg/kg or 100 mg/kg.
# Plasma glucose levels were monitored over a four hour period during and following the 30 minute infusion. Plasma glucose was measured by clinical chemistry autoanalyzer. The onset of the serum glucose lowering effect was evident by the end of the AICA riboside infusion period and plasma glucose reached a nadir approximately 30 minutes after the AICA riboside infusion was stopped. Recovery to euglycemic levels was complete by about three hours.
# [5] = in vivo; design: species or system dogs; details: dog
# Procedure: The bioavailability of AICA riboside after oral administration of either AICA riboside or one of the AICA riboside prodrugs of the present invention was evaluated in dogs. Plasma concentrations of AICA riboside and intact prodrug were measured using HPLC. (See Dixon, R., et al., Res. Commun. Chem. Path. Pharm. 65:405-408 (1989)). Bioavailability of AICA riboside was evaluated in terms of the time required to reach maximum plasma concentration (Tmax), the maximum concentration achieved (Cmax) and the area under the plasma concentration-time curve (AUC) from time zero to the last measurable plasma concentration. Absolute bioavailability (F%) was calculated by dividing the AUC for AICA riboside following oral administration of the prodrug (or AICA riboside itself) by the AUC following intravenous administration of an equivalent amount of AICA riboside (100% bioavailability).
# [6] = tested on: hippocampal CA-1 cells; test: Gerbil model of 5 minutes global brain ischemia followed by reperfusion; assay type: in vivo; details: ICV and IP administration
# Description: The claimed prodrugs, by delivering AICA riboside should provide similar efficacy. […] Both intracerebroventricular (ICV) and IP administration of AICA riboside was effective in the gerbil model In addition to the gerbil, two different rat models of focal ischemia were also used to evaluate AICA-riboside. One model employed partial reperfusion and the second total reperfusion.
# [7] = tested on: plasma glucose; test: Plasma glucose in streptozocin-hyperglycemic rats; assay type: in vivo; details: rats made hyperglycemic with 50 mg/Kg streptozocin I.V.; doses as low as 100 mg/Kg I.P.
# Procedure: as §1
# [8] = healthy male volunteers, 30-minute intravenous infusion
smiles,measurement,setting,value
"NC(=O)c1ncn([C@@H]2O[C@H](CO)[C@@H](O)[C@H]2O)c1N [AICA riboside, 1-β-D-ribofuranosyl-5-aminoimidazole-4-carboxamide]",increase of liver glycogen,[1],55%
same,Decreases in plasma glucose levels,[2],30-40%
same,Tissue Concentration Adenosine,[3]; Prodrug A at dose equimolar to AICA riboside,409 ± 60 nmol/g
same,Tissue Concentration AICA Riboside,[3]; equimolar doses,774 ± 73 nmol/g
same,time of plasma glucose nadir after infusion was stopped,[4]; [8],approximately 30 minutes
same,time to recovery to euglycemic levels,[4]; [8],about three
same,effect on serum glucose,"[4]; humans, 25 mg/kg intravenously over 30 minutes",significant reductions in serum glucose
same,AUC(0-t),[5]; iv,8300 ng·h/mL
same,F,[5]; iv,100%
same,AUC(0-t),[5]; po,900 ng·h/mL
same,Cmax,[5]; po,1100 ng/mL
same,Tmax,[5]; po,45 min
same,bioavailability,[5]; po,11%
same,degeneration of hippocampal CA-1 cells,[6],prevented the degeneration of hippocampal CA-1 cells
same,effect on plasma glucose,[7],marked decreases in plasma glucose that approached euglycemic levels
